The values that follow come from publication PMC12040169 (PLOS Biology, 2025).

The structures appear in SMILES notation.

The nature of one data set: in vitro. The following applies: human, hela cells, % viability.
Usually viability stands for a read-out of living cells in per cent, often relative to untreated cells. As to `CCOc1cc(NC2CCN(C(=O)C3CCCC(C)(C)C3)CC2)ncn1` (stereo not shown) [CBK305547], the viability at 28.5 h, 10 µM turned out to be 80.9%.
As for `CC1CN(C2CCN(S(=O)(=O)c3cccs3)CC2)C(=O)O1` (stereo not shown) [CBK044072], the viability at 28.5 h, 10 µM was found to be 112%.
As for `O=C(NC1(c2ccccc2)CCCC1)c1ccc(=O)n(CC(=O)N2CCCCC2)c1` [CBK285631], the viability at 28.5 h, 10 µM was found to be 90.5%.
In the case of `CCOc1ccc(CC(=O)Nc2ncccc2OCCCC#N)cc1` [CBK304062], the viability at 28.5 h, 10 µM was determined as 90.3%.
In the case of `Cc1ccc(SCCNS(=O)(=O)c2ccc3ccccc3c2)cc1` [CBK267504], the viability at 28.5 h, 10 µM is 88%.
Regarding `Nc1ccc(-c2cncc(N3CCN(c4ccncc4)CC3)n2)cc1` [CBK065681], the viability at 28.5 h, 10 µM was 97%.
For `Cc1ccc(NC(=O)CSc2cc(-n3nc(C)cc3C)ncn2)cc1` [CBK287820], the viability at 28.5 h, 10 µM came out at 89%.
As for `CC(=O)N1CCN(C(=O)C2C(C(=O)O)C2(C)C)CC1` (stereo not shown) [CBK287021], the viability at 28.5 h, 10 µM stood at 102%.
On to `O=C(c1ccc2nccnc2c1)N1CCN(c2ccccc2)CC1` [CBK200209], for which the viability at 28.5 h, 10 µM is 92.9%.
Same read-out and setting: the figure for `O=C(Nc1cccc(N2CCCC2)c1)c1cc(C2CC2)on1` [CBK283139] is 87.7%; for `NC(=O)CN1CCC(Cc2ccccc2)CC1` [CBK138319] it is 109%; for `CCc1nc2ccc(C(=O)N3CCN(C)CC3)cn2c1N(C)Cc1nccn1C` [CBK146299] it is 115%.
Turning to `COCC1CCCN1C(=O)c1cnn2c(C)c(Cc3ccc(OC)cc3)c(C)nc12` (stereo not shown) [CBK162190], the viability at 28.5 h, 10 µM came out at 107%.
For the compound `O=C(Cc1c[nH]cn1)N1CCCC2(CCN(C(=O)c3cc(F)c(F)cc3F)C2)C1` (stereo not shown) [CBK137072], the viability at 28.5 h, 10 µM came to 95.6%.
For `O=C(c1ccccc1)N1C[C@@H](c2ccsc2)[C@@H]2CN(Cc3cccc(Cl)c3)CC[C@@H]21` [CBK285603], the viability at 28.5 h, 10 µM came out at 108%.
Turning to `O=S(=O)(c1ccccc1)N1Cc2cccc3[nH]cc(c23)C1` [CBK153275], the viability at 28.5 h, 10 µM came to 102%.
For the compound `O=C(CC1CCN(Cc2cccc(C(F)(F)F)c2)CC1)N(Cc1ccccn1)C1CC1` [CBK286494], the viability at 28.5 h, 10 µM turned out to be 101%.
In the case of `C=CCNc1nccnc1-c1cccnc1` [CBK037016], the viability at 28.5 h, 10 µM was 101%.
In the case of `COc1ccc(-c2nccnc2N2CCN(C)CC2)cc1` [CBK038012], the viability at 28.5 h, 10 µM turned out to be 113%.
Still for that read-out and setting: the figure for `COc1ccc(CN(Cc2ccsc2)[C@@H]2COC[C@H]2c2ccc(F)cc2)cc1` [CBK286485] is 112%; for `CC(C)(C)c1ccc(S(=O)(=O)N2CCC3(CC2)OCCO3)cc1` [CBK038429] it is 111%.
`CCN1CCN(c2ccc(NC(=O)Cn3cnc4c(=O)n(C)c(=O)n(C)c43)cc2Cl)CC1` [CBK269535]: the viability at 28.5 h, 10 µM was 94.3%.
Turning to `CC(=O)c1ccc(-c2ccc(C(=O)N(C)CCN(C)C)c(N(C)C)n2)s1` [CBK106071], the viability at 28.5 h, 10 µM turned out to be 85.6%.
Regarding `OCC1CCCN1c1cncc(-c2ccc(F)cc2F)n1` (stereo not shown) [CBK065891], the viability at 28.5 h, 10 µM was found to be 112%.
As to `CCOC(=O)c1cnc(SCC(=O)N2c3ccccc3SC3C=CC=CC32)nc1N` (stereo not shown) [CBK269029], the viability at 28.5 h, 10 µM was 99.6%.
With `O=C(c1ccccc1F)N1C[C@H](c2ccsc2)[C@H]2CN(Cc3ccsc3)CC[C@H]21` [CBK285661], the viability at 28.5 h, 10 µM was 107%.
With `Cc1ccc2c(c1C)NC(=O)CC2c1ccc(F)cc1` (stereo not shown) [CBK288221], the viability at 28.5 h, 10 µM came out at 101%.
On the same count and under the same terms, the figure for `CC1(C)Cc2nc(N3CCOCC3)ncc2C(NC(=O)c2cn[nH]c2)C1` (stereo not shown) [CBK307409] is 106%; for `CC(=O)c1ccc(-c2nc(NC(=O)c3ccccn3)cnc2-c2cccc(OC(F)(F)F)c2)s1` [CBK036929] it is 107%.
Same read-out and setting: the figure for `CCC(CN(C(=O)C(N)CCCCN)c1ccc2c(c1)OCO2)c1ccccc1` (stereo not shown) [CBK001083T] is 96.4%.
Take `CCN1CCN(C(=O)c2c[nH]c3ccccc23)CC1` [CBK200245]: the viability at 28.5 h, 10 µM stood at 103%.
Take `COc1cc(CNc2nccnc2-c2cccc(CO)c2)cc(OC)c1` [CBK037403]: the viability at 28.5 h, 10 µM was 90.6%.
For the compound `Cc1cc2ccccc2n2c(=O)n(CC(=O)N3CCCC3)nc12` [CBK283880], the viability at 28.5 h, 10 µM was determined as 101%.
With `O=C(NC1CCN(c2ncccn2)CC1)c1ccc[nH]c1=S` [CBK241695], the viability at 28.5 h, 10 µM was 83.9%.
Regarding `COc1nccnc1N1CCN(Cc2cccnc2)CC1` [CBK084213], the viability at 28.5 h, 10 µM amounted to 91.2%.
With `COc1ccc2[nH]cc(CCNC(=O)N3CCN(CCN4CCOCC4)CC3)c2c1` [CBK155818], the viability at 28.5 h, 10 µM came to 101%.
In the case of `c1ccc(-c2cc(-c3ccccc3)n3nc(Cc4nc5nc(-c6ccccc6)cc(-c6ccccc6)n5n4)nc3n2)cc1` [CBK261017], the viability at 28.5 h, 10 µM was determined as 93.1%.
As for `Cc1[nH]c2c(C(=O)Nc3cccc(CN4CCOC4=O)c3)cccc2c1C` [CBK298338], the viability at 28.5 h, 10 µM was 90.3%.
In the case of `CC(=O)N1CCN(Cc2c(C(F)(F)F)[nH]c3ncc(C)cc23)CC1` [CBK284768], the viability at 28.5 h, 10 µM was found to be 93.1%.
Consider `O=C(Nc1ccc(Cl)cc1)Nc1ccc(OCC(O)CN2CCCCC2)cc1` (stereo not shown) [CBK086101], for which the viability at 28.5 h, 10 µM came out at 99.4%.
Still for that read-out and setting: the figure for `c1ccc(-c2nnc3ccccc3c2NCCCN2CCOCC2)cc1` [CBK066892] is 93.9%.
With `O=C(Cc1nnc(-c2ccncc2)o1)NCCC1=CCCCC1` [CBK288605], the viability at 28.5 h, 10 µM was found to be 117%.
As to `CS(=O)(=O)N(CC(=O)NCc1ccccn1)c1ccc2c(c1)OCO2` [CBK269385], the viability at 28.5 h, 10 µM is 87.2%.
On the same count and under the same terms, the figure for `Cc1nn(C)c(Cl)c1S(=O)(=O)Nc1cc(NC2CCNC2)c2occc2c1` (stereo not shown) [CBK067807C] is 99.3%; for `Cc1csc(C(Cc2ccsc2)NC(=O)c2cnn(C)c2C)n1` (stereo not shown) [CBK285148] it is 104%; for `Cc1nc(N2CCCCC2)ncc1C(=O)NCCc1cc[nH]n1` [CBK307035] it is 113%.
Turning to `CC(C)(C)NC(=O)Cn1c(=O)n(Cc2cccs2)c2ncccc21` [CBK283844], the viability at 28.5 h, 10 µM stood at 104%.
On the same count and under the same terms, the figure for `CC(C)Nc1nc2cc(Cl)c(Cl)cc2nc1OCc1cccnc1` [CBK115743] is 97.4%; for `Cc1nc2c(OCCOc3ccc(F)cc3)cccn2c1N(C)C(=O)CCC1CCCC1` [CBK147198] it is 103%; for `CNC(=O)c1ccc(OC)c(S(=O)(=O)NC)c1` [CBK270153] it is 88.9%.
Take `Cc1ccc(S(=O)(=O)N2CCN(CCC(=O)O)CC2)cc1` [CBK269443]: the viability at 28.5 h, 10 µM is 97.1%.
Consider `N#CCCOc1nc2ccccc2nc1N1CCCC1` [CBK115763], for which the viability at 28.5 h, 10 µM came out at 96.2%.
Still for that read-out and setting: the figure for `COc1ccc(NC(=O)N[C@@H]2CC[C@@]3(c4ccc(OC)c(OC)c4)CCN(C)[C@H]3C2)c(C)c1` [CBK036460T] is 97.2%; for `O=C(O)C1Nc2c(C(=O)N3CCOCC3)cccc2C2C=CCC12` (stereo not shown) [CBK275006] it is 104%; for `CC(=O)c1c(C)nn(C(C)CC(=O)O)c1C` (stereo not shown) [CBK269101] it is 103%.
As for `Cc1ccc(CNS(=O)(=O)c2ccc3ccccc3c2)cc1` [CBK266501], the viability at 28.5 h, 10 µM was determined as 102%.
As to `Cc1cccc(-c2csc3c(=O)[nH]c(N4CCC(C(=O)NCCN(C)C)CC4)nc23)c1` [CBK215633], the viability at 28.5 h, 10 µM stood at 95.8%.
Regarding `COc1cc(C(=O)N2CCC3(CC2)CC(=O)c2cc(Br)ccc2O3)ccc1C` [CBK149465], the viability at 28.5 h, 10 µM stood at 110%.
On to `COc1cc(-c2nccnc2N2CCCN(C)CC2)cc(OC)c1OC` [CBK037994], for which the viability at 28.5 h, 10 µM turned out to be 97.8%.
As for `Cn1cc(CCNC(=O)NC2CCN(c3ncccn3)CC2)cn1` [CBK305612], the viability at 28.5 h, 10 µM came to 104%.
With `FC(F)(F)c1cccc(-c2nccnc2NCc2cccs2)c1` [CBK037298], the viability at 28.5 h, 10 µM amounted to 105%.
For `Cc1cc(COc2nccnc2OC2CCN(CCN3CCOCC3)CC2)no1` [CBK082961T], the viability at 28.5 h, 10 µM is 103%.
Turning to `CCS(=O)(=O)Nc1cc([N+](=O)[O-])ccc1OC` [CBK111343], the viability at 28.5 h, 10 µM stood at 97%.
Turning to `Cc1cc(C)n(CCCn2cncc2-c2cnn(C)c2)n1` [CBK281771], the viability at 28.5 h, 10 µM turned out to be 84.9%.
`COc1ccc(OC)c([C@@H]2CN(Cc3ccccc3)C[C@H]2NC(=O)c2ccco2)c1` [CBK286479]: the viability at 28.5 h, 10 µM was 96.3%.
`Cc1ccc(-n2ncc3c(Nc4c(C)n(C)n(-c5ccccc5)c4=O)ncnc32)c(C)c1` [CBK294449]: the viability at 28.5 h, 10 µM came to 82.6%.
`O=C1NC(N2CCCC2)=NOc2nnc(Cl)cc21` [CBK024856]: the viability at 28.5 h, 10 µM is 109%.
Consider `Cn1c(=O)ccn([C@@H]2O[C@H](CO)[C@H](O)C2O)c1=O` (stereo partly shown) [CBK201281], for which the viability at 28.5 h, 10 µM stood at 104%.
On to `OC(CN1CCOCC1)Cn1c(-c2ccccc2)c(-c2ccccc2)c2ccc3ccccc3c21` (stereo not shown) [CBK263996G], for which the viability at 28.5 h, 10 µM came to 94.7%.
With `CN1C(=O)CC2(C1=O)C(=O)N(CCCn1c(=O)n(C)c3ccccc31)c1ccc(F)cc12` (stereo not shown) [CBK075441], the viability at 28.5 h, 10 µM was 110%.
In the case of `Fc1cccc(-c2nnc(SCc3nc4ccccc4[nH]3)n2-c2ccccc2)c1` [CBK263256], the viability at 28.5 h, 10 µM is 95.3%.
The same measure, in the same setting: the figure for `COc1ccc(CCCC(=O)Nc2ccc(N3CCNCC3)nc2)cc1OC` [CBK028272T] is 82.4%.
As to `Cc1ccc2oc(CN3CCn4cnnc4C3)c(C)c2c1` [CBK283075], the viability at 28.5 h, 10 µM was 109%.
Turning to `O=C(Nc1ccc2oc(-c3cccnc3)nc2c1)c1ccc(-c2cccc([N+](=O)[O-])c2)o1` [CBK262945], the viability at 28.5 h, 10 µM was 106%.
Still for that read-out and setting: the figure for `O=C(NC1CCCC1)c1cc(=O)n(Cc2ccc(Cl)cc2)c2ccccc12` [CBK294464] is 104%; for `CC(=O)N1Cc2cc(C)ccc2OC2(CCN(CC3CC3)CC2)C1` [CBK285021] it is 95%.
Consider `Cc1ccc(-c2c(N3CCCC3)n[nH]c2C2CC2)cc1` [CBK288192], for which the viability at 28.5 h, 10 µM worked out at 97.8%.
For the compound `ON=C1CCC(c2ccccc2)CC1` (stereo not shown) [CBK016102], the viability at 28.5 h, 10 µM was determined as 113%.

The same data set, now with this note: human, hela cells, % viability, bulk resorufin, single well.
Regarding `CCOC(=O)N1CCC2(CC1)Oc1ccc(-c3cccc4ncccc34)cc1O2` [CBK085454], the viability at 28.5 h, 10 µM worked out at 99.8%.
